Results published in patent publication US10570458B2, “Methods for diagnosis, prognosis and treatment of primary and metastatic basal-like breast cancer and other cancer types” (ONCONOSTIC TECHNOLOGIES, INC., priority 2009, dated 2020).
Entries after “also recorded” stand apart in the source; their conditions may differ.

What was measured:
MCF-7 cells = test: MTT cell proliferation assay, FOXC1-overexpressing vs control cells; format: cell-based, human
Method: MCF-7 and T47D human breast cancer cell lines were obtained from the Breast Center at Baylor College of Medicine. Cells were routinely maintained in Dulbecco's modified Eagle's medium (DMEM) supplemented with 10% fetal bovine serum (FBS), 2 mM glutamine, 50 IU/ml of penicillin, 50 μg/ml of streptomycin, and 10 μg/ml insulin. Cells were kept at 37° C. in a humidified incubator with 5% CO2. Tamoxifen and 17β-estradiol were from Sigma (St Louis, Mo.). The IKK small molecule inhibitor BMS-345541 was purchased from Calbiochem (Gibbstown, N.J.). For experiments involving estradiol and tamoxifen, cells were serum-starved overnight and then stimulated with the ER ligands for different time periods prior to cell proliferation assays. Cell viability was assessed by the 3-(4,5-dimethylthiazol-2-yl)-2,5-diphenyltetrazolium (MTT) assay. Cells were seeded in 24-well plates at 30% confluence and the MTT assay was performed one, two, three and four days after treatment. For each assay, 50 μl of MTT (5 mg/ml) were added to each well and cells were incubated at 37° C. for an additional 4 h. After centrifugation, the supernatant was carefully aspirated and 300 μl of DMSO (Sigma) were added to each well. Immediately after resolubilization, all plates were scanned at 575 nm on a microplate reader. The absorbance (A) value represented the number of live cells.

triple-negative patients = conditions: patients were a mix of basal-like positive and negative; cited from earlier work
[1] = system: ERα, PR, and IRS-1 in FOXC1-overexpressing MCF-7 cells; test: Immunoblotting of ERα, PR and IRS-1; format: cell-based, human; conditions: 5 μM, 24 h
Method: Whole cell lysates for western blotting were generated by cell lysis buffer (50 mM Tris-HCl, pH 7.4, 150 mM NaCl, 2 mM EDTA, 1% NP-40, 10% glycerol) supplemented with a protease inhibitor cocktail (Sigma, St Louis, Mo.). Equal amounts of protein were separated by 10% SDS-PAGE and then transferred onto a nitrocellulose membrane. The remaining steps were conducted according to a standard immunoblotting protocol (Qu et al., 2009). Immunoblotting was done with polyclonal antibodies against p65, FOXC1, IRS1 (1:200; Santa Cruz Biotechnology), polyclonal antibodies against phospho-p65, p50, IκBα (1:1000; Cell Signal), or monoclonal antibodies against ERα (1:500; Novocastra Laboratories, Newcastle upon Tyne, UK), PR (1:500; DAKO, Carpinteria, Calif.). Anti-β actin (Sigma) was used at a 1:10000 dilution. After the primary antibody incubation, the membrane was again washed with PBST three times (5 min each) and then incubated with a horseradish peroxidase (HRP)-linked secondary antibody (Amersham, Piscataway, N.J.) at a dilution of 1:4000 in blocking solution. The membrane was washed and bands were visualized using chemiluminescence assays.

[2] = system: BT549 basal-like/claudin-low cells; test: Cell viability (relative survival) with increasing doses of iCRT3; format: cell-based, human; conditions: BT549 (high constitutive FOXC1 expressor) compared to MCF7 (luminal) or SKBR3 (HER2) cell lines
Excerpt: (§1) FIGS. 45A-45B show the relative survival of representative breast cancer cell lines upon inhibition of Wnt/β catenin signaling with increasing doses of the inhibitor iCRT3.

[3] = system: HS578T basal-like/claudin-low cells; test: as above; format: cell-based, human; conditions: HS578T (high constitutive FOXC1 expressor) compared to MCF7 (luminal) or SKBR3 (HER2) cell lines
Excerpt: as §1

FOXC1 expression = FOXC1 expression upon inhibition of Wnt/β catenin signaling; format: cell-based, human; conditions: Wnt inhibition, dose and time dependent, particularly pronounced in BT549 mammosphere cultures
[4] = system: BT549 cancer stem cells in mammosphere culture; test: Mammosphere formation; format: cell-based, human
Excerpt: FIGS. 47A-47B show mammosphere formation upon inhibition of Wnt/β catenin signaling by iCRT-3.
FIGS. 49A-49B show mammosphere formation upon simultaneous inhibition of Wnt/β catenin signaling by addition of iCRT-3 and inhibition of NF-κB signaling.

[5] = system: stem related genes and NF-κB signaling in BT549 mammosphere cells; test: qRT-PCR profiling of residual mammosphere cells after Wnt inhibition; format: cell-based, human
Excerpt: FIG. 48 is a bar graph showing the fold change of mRNA expression of the stem related genes BMI-1, FOXC1, KIT, NANOG, OCT4, and SOX2 upon inhibition of Wnt/β catenin signaling by addition of iCRT-3 on day 4 (left hand bar) and day 7 (right hand bar).

[6] = system: FOXC1 expression in MDA-MB-231 basal-like/claudin-low cell line; test: FOXC1 expression upon exposure to Wnt3a; format: cell-based, human; conditions: MDA-MB-231 (low constitutive FOXC1 expressor) exposed to canonical Wnt ligand
Excerpt: FIGS. 44A-44D show the correlation between FOXC1 expression and Wnt activity upon biological and pharmacologic inhibition and stimulation with a natural ligand.

C[C@]12CC[C@@H]3c4ccc(O)cc4CC[C@H]3[C@@H]1CC[C@@H]2O [estradiol, 17β-estradiol]
increase of cell growth induced by treatment (MCF-7 cells; FOXC1-overexpressing vs control MCF-7 cells, serum-starved, 10^−8 M): diminished the increase of cell growth

CC(C)C[C@H](NC(=O)[C@H](Cc1ccccc1)NC(=O)c1cnccn1)B(O)O [bortezomib]
outcome of clinical trial (triple-negative patients): inconclusive results

CC/C(=C(\c1ccccc1)c1ccc(OCCN(C)C)cc1)c1ccccc1 [tamoxifen]
sensitivity of cell proliferation to antiestrogen treatment (MCF-7 cells; FOXC1-overexpressing vs control MCF-7 cells, 10^−6 M, regular medium): less sensitive

Cc1ccc2nc(NCCN)c3ncc(C)n3c2c1 [BMS-345541]
sensitivity of cell proliferation to NF-κB inhibition (MCF-7 cells; FOXC1-overexpressing vs vector MCF-7 cells, 5 μM): sensitized
levels of ERα, PR, and IRS-1 [1]: elevated levels

CCc1ccc(-c2nc(CSCC(=O)NCCc3ccccc3)c(C)o2)cc1 [iCRT3, 2-[[[2-(4-ethylphenyl)-5-methyl-4-oxazolyl]methyl]thio]-N-(2-phenylethyl)acetamide]
sensitivity to treatment (decreased cell viability) [2]: more sensitive
sensitivity to treatment (decreased cell viability) [3]: more sensitive
FOXC1 expression level (FOXC1 expression): decrease in FOXC1 expression level
FOXC1 expression level (FOXC1 expression; listed as iCRT-3): decreased FOXC1 expression
mammosphere formation ability of persisting cells ([4]; BT549, Wnt inhibition alone, after an initial 4 day incubation period): renewed enhancement of mammosphere formation ability
mammosphere formation efficiency ([4]; BT549 cells, Wnt inhibition alone vs DMSO): reduced mammosphere formation efficiency
FOXC1 positive cells ([5]; cells persisting after Wnt inhibition): depletion of FOXC1 positive cells
expression of embryonic stem cell transcription factors OCT4, SOX2 and NANOG ([5]; cells persisting after Wnt inhibition (day 4, day 7)): pronounced up regulation
NF-κB signaling (qRT-PCR based pathway activation analysis) ([5]; residual cells that withstood Wnt inhibition): marked activation of NF-κB signaling

B1: Wnt3a: a canonical Wnt signaling ligand (protein, UniProt P56704 19-352, looked up)
Protein Wnt-3a: SYPIWWSLAVGPQYSSLGSQPILCASIPGLVPKQLRFCRNYVEIMPSVAEGIKIGIQECQHQFRGRRWNCTTVHDSLAIFGPVLDKATRESAFVHAIASAGVAFAVTRSCAEGTAAICGCSSRHQGSPGKGWKWGGCSEDIEFGGMVSREFADARENRPDARSAMNRHNNEAGRQAIASHMHLKCKCHGLSGSCEVKTCWWSQPDFRAIGDFLKDKYDSASEMVVEKHRESRGWVETLRPRYTYFKVPTERDLVYYEASPNFCEPNPETGSFGTRDRTCNVSSHGIDGCDLLCCGRGHNARAERRREKCRCVFHWCCYVSCQECTRVYDVHTCK
FOXC1 expression [6]: increased expression of FOXC1; also recorded: increase in FOXC1 expression
